Source: patent publication US10676478B2, “7-(thiazol-5-yl) pyrrolopyrimidine compound as TLR7 agonist” (CHIA TAI TIANQING PHARMACEUTICAL GROUP CO., LTD., priority 2015, dated 2020)
Where two headings read alike, the source gives them in different places. Values belong to the compound of their own block, whether it stands above or below them.

How the values were obtained:
[1] = Pharmacokinetics assay in rat; type: in vivo, SD rats; parameters: Mean plasma drug concentration: unit not given here; conditions: for Cmax: read-out: C0 or Cmax; for half-life: read-out: T½ (converted)
Experimental: Experimental Example 2: Pharmacokinetics Assay in Rat
12 male SD rats were divided into 4 groups with 3 SD rats in each group. 2 groups of animals were administered by intravenous injection (IV) 1 mg/kg of the control Toll-like receptor 7 agonist GS-9620 and Example 1 compound as 10% hydroxypropyl-β-cyclodextrin aqueous solution (concentration is 0.5 mg/mL), respectively. The other 2 groups were administered orally (PO) 5 mg/kg of GS-9620 and 3 mg/kg of Example 1 compound as 0.5% methylcellulose/0.2% Tween 80 pure water suspension (concentration is 1 mg/mL). […] Each rat with oral administration was collected for whole blood samples which were prepared into plasma 15, 30 min and 1, 2, 4, 8, 24 h continuously after administration. The plasma concentrations of GS-9620 and Example 1 compound were determined with LC-MS/MS.

[2] = biological target: T1, Toll-like receptor 8 (HEK-blue hTLR8 cell) (Homo sapiens, UniProt Q9NR97); experiment: Toll-like receptor 8 in vitro receptor binding activity (HEK-blue hTLR8 cell, Quanti-Blue alkaline phosphatase reporter); type: cell-based; conditions: 24 h incubation, read-out: TLR8 EC50
T1 construct: host or cells: HEK-blue hTLR8 cell (HEK293-derived reporter line)
T1 sequence (Q9NR97 27-1041): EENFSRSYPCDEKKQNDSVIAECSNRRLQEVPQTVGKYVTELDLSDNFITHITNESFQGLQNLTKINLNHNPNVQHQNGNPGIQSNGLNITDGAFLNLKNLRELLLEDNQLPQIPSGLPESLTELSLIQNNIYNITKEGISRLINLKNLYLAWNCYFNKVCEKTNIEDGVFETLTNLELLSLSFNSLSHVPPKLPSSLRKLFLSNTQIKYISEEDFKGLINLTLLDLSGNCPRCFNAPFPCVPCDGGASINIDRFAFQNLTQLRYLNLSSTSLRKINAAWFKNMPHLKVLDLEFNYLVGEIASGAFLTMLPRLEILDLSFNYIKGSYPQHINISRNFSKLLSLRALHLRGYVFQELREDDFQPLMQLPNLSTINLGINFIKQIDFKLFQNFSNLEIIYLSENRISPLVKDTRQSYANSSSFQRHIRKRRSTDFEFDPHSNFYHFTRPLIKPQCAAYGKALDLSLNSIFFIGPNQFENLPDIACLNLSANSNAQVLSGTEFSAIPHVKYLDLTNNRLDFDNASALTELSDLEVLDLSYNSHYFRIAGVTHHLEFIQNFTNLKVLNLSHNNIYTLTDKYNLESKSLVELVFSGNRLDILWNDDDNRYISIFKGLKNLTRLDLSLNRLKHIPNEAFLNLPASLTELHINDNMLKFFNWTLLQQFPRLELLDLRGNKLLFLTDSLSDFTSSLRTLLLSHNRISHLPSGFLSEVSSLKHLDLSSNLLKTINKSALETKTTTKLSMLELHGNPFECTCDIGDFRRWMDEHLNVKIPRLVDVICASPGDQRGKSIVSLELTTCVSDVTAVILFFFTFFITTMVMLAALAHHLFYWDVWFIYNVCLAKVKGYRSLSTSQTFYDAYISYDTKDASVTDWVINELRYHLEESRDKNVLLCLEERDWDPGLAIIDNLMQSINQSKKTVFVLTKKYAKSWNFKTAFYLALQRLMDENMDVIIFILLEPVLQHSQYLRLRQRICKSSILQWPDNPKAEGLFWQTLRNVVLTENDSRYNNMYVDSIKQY
Experimental: (§1) Experimental Example 1: Toll-Like Receptor 7 and Toll-Like Receptor 8 In Vitro Receptor Binding Activity
(§2) HEK-blue hTLR7 cell and HEK-blue hTLR8 cell (available from InvivoGen)
(§3) The GS-9620 and R848 used have the following structures. GS-9620 can be prepared according the process disclosed in US20100143301; R848 is purchased from ABGENT (Catalog: IMG-2208, 0.5 mg).
(§4) The compounds were gradient diluted with DMSO in 3-fold using liquid work station POD starting at a concentration of 10 mmol/L and 10 points were diluted (2nd column to 11th column, and each point was duplicated). At 12th column, 1 μL of 5 mg/mL positive compound R848 was added as positive control; and at 1 st column, 1 μL of DMSO was added as negative control. Each well contained 1 μL of DMSO.
(§5) 2. The cells in cell culture flask were collected and the cell density was diluted to 250,000 cells/mL.
(§6) 3. 200 μL (50,000 cells/well) of cell suspension was added into prepared compound plate and the final concentration of DMSO in each well was 0.5%.
(§7) 4. The culture plates containing cells and the compounds were incubated in CO2 incubator for 24 h at 37° C., 5% CO2.
(§8) 5. After 24 h incubation, 20 μL of supernatant was removed from each well of the cell culture plates to a 96-well transparent assay plate. […]
(§9) 6. After 1 h, the content of alkaline phosphatase in 20 μL of supernatant was determined using Microplate Reader at OD650. […]

[3] = biological target: T2, Toll-like receptor 7 (HEK-blue hTLR7 cell) (Homo sapiens, UniProt Q9NYK1); experiment: Toll-like receptor 7 in vitro receptor binding activity (HEK-blue hTLR7 cell, Quanti-Blue alkaline phosphatase reporter); type: cell-based; conditions: 24 h incubation, read-out: TLR7 EC50
T2 construct: host or cells: HEK-blue hTLR7 cell (HEK293-derived reporter line)
T2 sequence (Q9NYK1 27-1049): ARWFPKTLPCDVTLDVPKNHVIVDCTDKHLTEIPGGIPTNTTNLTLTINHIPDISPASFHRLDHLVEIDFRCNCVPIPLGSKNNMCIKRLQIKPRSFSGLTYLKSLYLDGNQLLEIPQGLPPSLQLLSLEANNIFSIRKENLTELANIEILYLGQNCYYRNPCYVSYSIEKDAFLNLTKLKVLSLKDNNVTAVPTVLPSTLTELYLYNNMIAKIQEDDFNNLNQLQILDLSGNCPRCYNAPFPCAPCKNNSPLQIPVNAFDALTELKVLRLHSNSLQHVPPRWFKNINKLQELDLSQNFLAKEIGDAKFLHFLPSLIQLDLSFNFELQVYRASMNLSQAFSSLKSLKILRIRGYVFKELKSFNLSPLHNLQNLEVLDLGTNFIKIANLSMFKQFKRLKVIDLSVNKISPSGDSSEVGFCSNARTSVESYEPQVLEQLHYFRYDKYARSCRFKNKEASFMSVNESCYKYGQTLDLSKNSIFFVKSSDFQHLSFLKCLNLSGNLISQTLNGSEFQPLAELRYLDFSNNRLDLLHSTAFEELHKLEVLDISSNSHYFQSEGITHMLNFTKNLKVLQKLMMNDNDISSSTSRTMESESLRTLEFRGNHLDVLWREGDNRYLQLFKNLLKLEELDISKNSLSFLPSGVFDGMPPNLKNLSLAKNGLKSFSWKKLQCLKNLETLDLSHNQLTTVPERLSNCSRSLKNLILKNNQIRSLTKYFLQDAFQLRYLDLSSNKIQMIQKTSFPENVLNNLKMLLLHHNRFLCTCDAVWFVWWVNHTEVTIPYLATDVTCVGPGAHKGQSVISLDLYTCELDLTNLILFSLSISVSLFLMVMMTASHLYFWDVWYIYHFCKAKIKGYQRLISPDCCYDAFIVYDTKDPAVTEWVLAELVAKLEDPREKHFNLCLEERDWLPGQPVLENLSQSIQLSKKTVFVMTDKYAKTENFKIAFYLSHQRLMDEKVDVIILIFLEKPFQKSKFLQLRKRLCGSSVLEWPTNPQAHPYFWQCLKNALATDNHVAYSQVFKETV
Experimental: as §1, §2, §3, §4, §5, §6, §7, §8, §9

[4] = male, SD, plasma, 1 mg/kg, IV 1 mpk
[5] = male, SD, plasma, 3 mg/kg, PO 3 mpk

Mean plasma drug concentration ([1]; IV 1 mpk, time 0.083 h): 170 | Mean plasma drug concentration ([1]; IV 1 mpk, time 0.25 h): 102 | Mean plasma drug concentration ([1]; IV 1 mpk, time 0.5 h): 65.4 | Mean plasma drug concentration ([1]; IV 1 mpk, time 1 h): 48.1 | Mean plasma drug concentration ([1]; IV 1 mpk, time 2 h): 21.6 | Mean plasma drug concentration ([1]; IV 1 mpk, time 4 h): 13 | Mean plasma drug concentration ([1]; IV 1 mpk, time 8 h): 4.17 | Mean plasma drug concentration ([1]; PO 5 mpk, time 0.25 h): 56.3 | Mean plasma drug concentration ([1]; PO 5 mpk, time 0.5 h): 33.2 | Mean plasma drug concentration ([1]; PO 5 mpk, time 1 h): 83.4 | Mean plasma drug concentration ([1]; PO 5 mpk, time 2 h): 136 | Mean plasma drug concentration ([1]; PO 5 mpk, time 4 h): 16.7 | Mean plasma drug concentration ([1]; PO 5 mpk, time 8 h): 9.49
Structure (SMILES): CCCCOc1nc(N)c2c(n1)N(Cc1cccc(CN3CCCC3)c1)CC(=O)N2 [GS-9620, reference compound]

Structure (SMILES): CCCCOc1nc(N)c2[nH]cc(Cc3cnc(CN4CCCC4)s3)c2n1 [Example 1, 2-butoxy-7-((2-(pyrrolidin-1-ylmethyl)thiazol-5-yl)methyl)-5H-pyrrolo[3,2-d]pyrimidin-4-amine]
EC50 [2]: 29.3 µM | Mean plasma drug concentration ([1]; IV 1 mpk, time 0.083 h): 500 | Mean plasma drug concentration ([1]; IV 1 mpk, time 0.25 h): 277 | Mean plasma drug concentration ([1]; IV 1 mpk, time 0.5 h): 197 | Mean plasma drug concentration ([1]; IV 1 mpk, time 1 h): 120 | Mean plasma drug concentration ([1]; IV 1 mpk, time 2 h): 66.1 | Mean plasma drug concentration ([1]; IV 1 mpk, time 4 h): 30.6 | Mean plasma drug concentration ([1]; IV 1 mpk, time 8 h): 13.1 | Mean plasma drug concentration ([1]; PO 3 mpk, time 0.25 h): 45.4 | Mean plasma drug concentration ([1]; PO 3 mpk, time 0.5 h): 52.0 | Mean plasma drug concentration ([1]; PO 3 mpk, time 1 h): 86.8 | Mean plasma drug concentration ([1]; PO 3 mpk, time 2 h): 113 | Mean plasma drug concentration ([1]; PO 3 mpk, time 4 h): 23.6 | Mean plasma drug concentration ([1]; PO 3 mpk, time 8 h): 5.64 | AUC(0-inf) [1, 4]: 0.573 µM·h | AUC(0-t) [1, 4]: 0.541 µM·h | clearance [1, 4]: 75.8 mL/min/kg | Cmax [1, 4]: 673 nM | half-life [1, 4]: 3.08 h | Vd ([1]; male, SD, plasma, 1 mg/kg, IV 1 mpk, read-out: Vdss): 13.5 L/kg | AUC(0-inf) [1, 5]: 0.325 µM·h | AUC(0-t) [1, 5]: 0.313 µM·h | Cmax [1, 5]: 148 nM | half-life [1, 5]: 1.54 h | EC50 [3]: 0.454 µM
